The subject of experiment [1] is HS02 cells. Briefly: Combination matrix cell viability assay. It counts as cell-based, human.
For experiment [2], the system named is HS01 cells. Description: Combination matrix cell viability assay. It counts as cell-based, human.
Experiment [3] has as its system phospho-AKT, phospho-FAK, phospho-Src, EphA2, cyclin D1, p21 in HS01 cells. Briefly: Western blots of whole cell lysates of HS01 cells. It counts as cell-based, human. The settings on record: HS01, 24h. On the technique in general: In western blotting, separated proteins are transferred to a membrane and probed.
Experiment [4] concerns primary human vestibular schwannoma (VS) cells. Description: ApoTox-Glo viability in primary VS cells. It counts as cell-based. The note with it: 96 hrs; omipalisib 16nM; dasatinib 200, 400, and 800nM.
The mark [5] stands for this setting: Homo sapiens, 72 h, HS02, single drug within the combination matrix.
The mark [6] stands for this setting: Homo sapiens, 72 h, HS01, single drug within the combination matrix.
[7] abbreviates: HS01, single drug within the combination matrix, 72h.
Setting [8] is: HS02, single drug within the combination matrix, 72h.

Where “and” joins values, the source holds several entries; their conditions need not be identical. Equal entries are not always repeated. Where only a bound is given, the exact number is not on record here.

One may read the GI50 as the concentration that inhibits growth by half. As to `Nc1cc(C(F)(F)F)c(-c2cc(N3CCOCC3)nc(N3CCOCC3)n2)cn1` [Buparlisib], the concentration for 50% growth inhibition (GI50) came to 4.9 µM in experiment [1] (setting [5]) and 4300 nM in experiment [2] (setting [6]).
With `Cc1nc(Nc2ncc(C(=O)Nc3c(C)cccc3Cl)s2)cc(N2CCN(CCO)CC2)n1` [Dasatinib, dasatinib], the values for the GI50 in experiment [1] (setting [5]) and in experiment [2] (setting [6]) were above 10 µM and above 10000 nM, respectively. For the same molecule, in experiment [3] (dasatinib 100 and 400nM alone or in combination), the “phosphorylated FAK-Tyr576 and Src-Tyr527” value is “Dose-dependent decreases”.
As for `CN(C)C1CCN(C(=O)c2ccc(NC(=O)Nc3ccc(-c4nc(N5CCOCC5)nc(N5CCOCC5)n4)cc3)cc2)CC1` [Gedatolisib], the GI50 stood at 0.09 µM in experiment [1] (Homo sapiens, 72 h) and 80 nM in experiment [2] (Homo sapiens, 72 h).
In the case of `COc1ncc(-c2ccc3nccc(-c4ccnnc4)c3c2)cc1NS(=O)(=O)c1ccc(F)cc1F` [Omipalisib, omipalisib], the “reduction in viability (mean fold change of all VS tumors)” value in experiment [4] is given as at least 20%. In addition, in experiment [2] (setting [7]), the concentration for 50% growth inhibition (GI50) is 20 nM. Moreover, the concentration for 50% growth inhibition (GI50) in experiment [2] (Homo sapiens, alone in HS01 cells) fell in the range of 50 to 80 nM. Moreover, in experiment [2] (omipalisib/dasatinib matrix, Fig. 1A (HS01, HS02)), the synergistic doses was 39 to 156 nM. Moreover, in experiment [3] (0.1 μM), the “Cyclin D1 levels” value is listed as “reduced” and the p21 levels result is given as “not observed”. Besides, the “Phospho-AKT (T308 and S473) decrease” value in experiment [3] (omipalisib 4 and 16nM alone or with dasatinib 100 and 400nM) is 91-99%. Besides, the “phosphorylated Src-Tyr527 levels compared to vehicle” value in experiment [3] (omipalisib alone) is “increased”.
In the case of `CN(c1ncccc1CNc1nc(Nc2ccc3c(c2)CC(=O)N3)ncc1C(F)(F)F)S(C)(=O)=O` [PF-00562271], the GI50 in experiment [1] (setting [8]) was 6.5 µM and 3.8 µM.
Take `CNC(=O)c1ccccc1Nc1cc(Nc2ccc(N3CCOCC3)cc2OC)ncc1C(F)(F)F` [PND-1186]: the values for the 50% growth inhibitory concentration (GI50) in experiment [1] (setting [5]) and in experiment [2] (setting [6]) were above 10 µM and above 10000 nM, respectively.
Consider `CS(=O)(=O)N1CCN(Cc2cc3nc(-c4cccc5[nH]ncc45)nc(N4CCOCC4)c3s2)CC1` [Pictilisib], for which, in experiment [1] (setting [5]), the 50% growth inhibitory concentration (GI50) is above 10 µM.
`CNC(=O)c1ccccc1Nc1nc(Nc2ccc(N3CCOCC3)cc2OC)ncc1Cl` [TAE226]: the GI50 in experiment [1] (setting [8]) amounted to 2.1 µM; in experiment [2] (setting [7]), 1000 nM.
In the case of `CCn1c(=O)c(-c2cc[nH]n2)cc2c(C)nc(N)nc21` [Voxtalisib], the concentration for 50% growth inhibition (GI50) was above 10 µM in experiment [1] (setting [5]) and above 10000 nM in experiment [2] (setting [6]).
